# Entries after “also recorded” stand apart in the source; their conditions may differ.
# How the values were obtained:
# [1] = phase 2 clinical trials in humans; cited from earlier work
# [2] = test system: EAE (MOG35-55 immunized mice); assay: EAE, late treatment initiated at day 28 post-immunization, clinical scoring; assay type: in vivo, C57BL/6J mice
# Experimental: (§1) Active EAE was induced in 8-12 wk-old female C57BL/6J mice that had been allowed to acclimatize to the animal facility for at least 1 wk. MOG35-55 peptide dissolved in PBS at a concentration of 2 mg/mL was mixed 1:1 with complete Freund's adjuvant to make an emulsion. On day 0, mice were immunized by injecting 50 μL of the emulsion s.c. into each of two sites on the lateral abdomen. In addition, on day 0 and again on day 2, mice were injected intraperitoneally with 250 ng pertussis toxin. Mice were weighed and scored beginning on day 7 post-immunization. Scoring was performed in a blinded manner according to the following scale:
# (§2) Bryo-1 was prepared by initially dissolving in 100% ethanol and then further diluting to 20% ethanol and 1% DMSO in PBS. The final concentration of bryo-1 was […] Mice were treated by i.p. injection of […] bryo-1 or an equal volume of vehicle control (20% ethanol and 1% DMSO in PBS) 3 d per week (Monday, Wednesday, Friday).
# In a third set of experiments, mice were randomized and treatment was begun on day 28 post-immunization, more than 10 d after peak disease and once motor deficits had reached a stable plateau.
# In another set of mice, to determine whether bryo-1 could reverse established neurologic deficits in EAE, mice were randomized and began treatment on day 28 post-immunization, more than 10 d after peak disease and once motor deficits had reached a stable plateau (FIG. 2C). […] Treatment was continued for just more than 3 wk and discontinued on day 51 post-immunization.
# [3] = test system: mixed glial cultures (MGCs); assay: Mixed glial cultures, iNOS / Arg1 immunoblot; assay type: cell-based, C57BL/6J mice
# Experimental: Mixed glial cultures (MGCs) obtained from the cerebral cortices of P1-P3 neonatal C57BL/6J mice were used, prepared as described by Saura et al., Glia (2003) 44:183-189. Mixed glial cultures were treated with LPS (FIG. 6A) or IL4 (FIG. 6B) ±vehicle or the indicated dose of bryo-1. Expression of iNOS or Argl, respectively, was assessed by immunoblot. Images are representative of 3 independent experiments.
# [4] = test system: EAE (MOG35-55 immunized mice); assay: EAE prevention paradigm, clinical scoring; assay type: in vivo, C57BL/6J mice; settings: 30 μg/kg i.p. 3 d per week from day of MOG35-55 immunization (day 0)
# Text: Experimental autoimmune encephalomyelitis (EAE) is an experimental animal model that recapitulates some aspects of MS. In the active-induction model of mouse EAE, mice are immunized with a peptide derived from myelin oligodendrocyte glycoprotein (MOG35-55), resulting in robust CNS inflammation causing demyelination, axonal injury, and motor weakness/paralysis.
# as §1
# as §2, with “Friday). […]” for “Friday).”
# [5] = test system: CD4+, Th1 and Th17 lymphocytes in EAE mice; assay: Flow cytometry of lymph node, spleen, brain and spinal cord in EAE mice, prevention paradigm; assay type: in vivo, C57BL/6J mice
# Experimental: Mice were killed with pentobarbital and perfused via cardiac puncture with ice-cold HBSS without cations. Brain, spinal cord (collected using hydrostatic pressure), spleen, and lymph node tissue were isolated after perfusion and were mechanically dissociated by passing through 100-μm cell strainers. For CNS tissue, after dissociation, infiltrating mononuclear cells were separated from myelin debris using a 37/70% percoll gradient. After dissociation, spleens were incubated in ACK lysis buffer to remove red blood cell contamination. Cells were counted using a MACSQuant flow cytometer (Miltenyi Biotec).
# For surface marker and intracellular cytokine staining of T cells, the cells were first restimulated with a cell stimulation mixture with protein transport inhibitors (eBioscience, catalog #00-4975-03) for 4 h in cRPMI at 37° C. They then underwent live/dead and surface marker staining as earlier. For intracellular cytokine staining, cells were permeabilized and fixed using either IC Fixation buffer for cytokine analysis (eBioscience, 00-8222-49) or FoxP3 fixation/permeabilization buffer for transcription factor analysis (eBioscience, 00-5521-00) after manufacturer recommended protocol and incubated with specific conjugated antibodies for the specified proteins in permeabilization buffer for 1 h.
# Cells were analyzed by flow cytometry using a MACSQuant flow cytometer (Miltenyi Biotec). Flow data analysis was performed in FlowJo (FlowJo) or FlowLogic (Inivai).
# EAE was elicited by immunizing 8-12-wk-old C57BL/6J mice with MOG35-55. Neurologic symptoms of EAE were most evident 10-14 d after MOG immunization, peaking at about 16 d and then plateauing with slight diminution until 21 d. Mice were treated with bryo-1 (30 μg/kg) or vehicle by i.p. injection 3 d per week.
# [6] = test system: murine peritoneal macrophages (mPMs); assay: mPM cytokine secretion by ELISA; assay type: cell-based; settings: LPS 100 ng/mL, low-dose bryo-1
# Experimental: After overnight treatment of BMDCs or mPMs with LPS 100 ng/mL±bryo-1, culture supernatants were collected and cytokine production was assayed using ELISA kits for IL-12 p70 (catalog #88-7121-22), IL-6 (catalog #88-7064-22), and IL-10 (catalog #88-7105-22) purchased from eBioscience, according to manufacturer's instructions. Plates were read at 450 nm on a tabletop plate reader.
# Mice aged 8-12 wk were injected intraperitoneally with 2 mL each of 3% sterile thioglycolate (BD Biosciences, catalog #211716) medium. The mice were killed 3-5 d later, and cells were harvested by peritoneal lavage with ice-cold RPMI medium containing 2% FBS (FBS) and 1 unit/mL heparin. The cells were pelleted by centrifugation at 500×g for 8 min, washed in ice-cold RPMI containing 2% FBS alone, pelleted by centrifugation, and resuspended in ice-cold Spinner-modification minimum essential medium (SMEM; Sigma, M8167) supplemented with 10% FBS, 2 mM glutamine, and penicillin-streptomycin (SMEM-complete). Cells were then counted, equal numbers were plated into each well of appropriate cell culture dishes, and the cells were then incubated at 37° C. for 2-4 h to allow macrophage adhesion. Contaminating nonadherent cells were then removed by washing culture dishes five times with ice-cold sterile PBS. Fresh SMEM-complete was then added to the plates, which were incubated overnight at 37° C. […]
# [7] = brain and spinal cord, peak disease (day 14)
# [8] = lymph nodes, 8 d after immunization, prevention paradigm
# [9] = lymph nodes, day 8, prevention paradigm
# [10] = peak disease (day 14), prophylactic treatment
# [11] = spleen, day 8, prevention paradigm
smiles,measurement,setting,value
"CCC/C=C/C=C/C(=O)OC1/C(=C/C(=O)OC)CC2CC(C(C)O)OC(=O)CC(O)CC3CC(OC(C)=O)C(C)(C)C(O)(CC4C/C(=C/C(=O)OC)CC(/C=C/C(C)(C)C1(O)O2)O4)O3 (centres unmarked) [bryo-1, Bryostatin-1]",safety profile,[1],favorable safety profile
same,clinical scores after discontinuation vs vehicle-treated group,"[2]; after discontinuation at day 51, followed through day 71",remained significantly lower; also recorded: remained below those of vehicle-treated mice
same,clinical scores throughout the treatment period and for several days after discontinuation,[2]; treatment day 28 to day 51 post-immunization,steadily improved
same,time after discontinuing at which neurologic deficits worsened,[2]; treatment discontinued on day 51 post-immunization,approximately 1 wk
same,time to improvement after treatment initiation,[2]; treatment started day 28 post-immunization,within a week of treatment initiation
same,established motor deficits,"[2]; treatment started day 28 post-immunization, 30 μg/kg i.p. 3 d per week",reversed motor deficits
same,expression of Argl (M2 marker),"[3]; MGCs treated with IL4, dose as low as 1 nM",dramatically augmented expression
same,induction of iNOS (an M1 marker) by LPS,[3]; MGCs treated with LPS,blocked the induction
same,onset of EAE (clinical course),[4],abolished the onset of EAE
same,percentage of infiltrating CD4+ lymphocytes expressing IL17,[5]; [7],unchanged
same,proportion of infiltrating CD4+ lymphocytes producing IFNγ,[5]; [7],decreased proportion
same,numbers of Th1 (CD4+; IFNγ+) lymphocytes in lymph nodes,[5]; [8],significantly decreased numbers
same,numbers of Th17 (CD4+; IL17+) lymphocytes in lymph nodes,[5]; [8],significantly decreased numbers
same,numbers of total CD4+ (CD3+; CD4+) lymphocytes in lymph nodes,[5]; [8],significantly decreased numbers
same,proportion of Th1 cells among CD4+ lymphocytes,[5]; [9],significantly lower proportion
same,proportion of Th17 cells among CD4+ lymphocytes,[5]; [9],insignificant decrease
same,infiltration of CD4+ lymphocytes into the brain,[5]; [10],diminished infiltration
same,infiltration of CD4+ lymphocytes into the spinal cord,[5]; [10],diminished infiltration
same,numbers of Th1 lymphocytes in spleen,[5]; [11],significantly decreased numbers
same,numbers of Th17 cells in spleen,[5]; [11],trend toward decreased
same,numbers of total CD4+ lymphocytes in spleen,[5]; [11],significantly decreased numbers
same,LPS-induced secretion of IL-6,[6],inhibited
same,LPS-induced secretion of IL-12,[6],inhibited

# Source: US12642786B2, “Methods, compositions and kits for treating multiple sclerosis and other disorders” (The Johns Hopkins University, priority 2018, dated 2026)
